Here are results for 10 molecules from patent US12213970B2, “Pyridinyl sulfonamide derivatives, pharmaceutical compositions and uses thereof” (Boehringer Ingelheim International GmbH, priority 2018, dated 2025).

Structures can show the parent of a compound that is named as a salt. Where two headings read alike, the source gives them in different places. Some results are limits rather than exact numbers.

In assay [1] the target is T1, human AOC3 enzyme (recombinant CHO cells) (Homo sapiens, UniProt Q16853).
T1 construct: expressed in transfected cells; host or cells: CHO cells
T1 sequence (Q16853 1-763): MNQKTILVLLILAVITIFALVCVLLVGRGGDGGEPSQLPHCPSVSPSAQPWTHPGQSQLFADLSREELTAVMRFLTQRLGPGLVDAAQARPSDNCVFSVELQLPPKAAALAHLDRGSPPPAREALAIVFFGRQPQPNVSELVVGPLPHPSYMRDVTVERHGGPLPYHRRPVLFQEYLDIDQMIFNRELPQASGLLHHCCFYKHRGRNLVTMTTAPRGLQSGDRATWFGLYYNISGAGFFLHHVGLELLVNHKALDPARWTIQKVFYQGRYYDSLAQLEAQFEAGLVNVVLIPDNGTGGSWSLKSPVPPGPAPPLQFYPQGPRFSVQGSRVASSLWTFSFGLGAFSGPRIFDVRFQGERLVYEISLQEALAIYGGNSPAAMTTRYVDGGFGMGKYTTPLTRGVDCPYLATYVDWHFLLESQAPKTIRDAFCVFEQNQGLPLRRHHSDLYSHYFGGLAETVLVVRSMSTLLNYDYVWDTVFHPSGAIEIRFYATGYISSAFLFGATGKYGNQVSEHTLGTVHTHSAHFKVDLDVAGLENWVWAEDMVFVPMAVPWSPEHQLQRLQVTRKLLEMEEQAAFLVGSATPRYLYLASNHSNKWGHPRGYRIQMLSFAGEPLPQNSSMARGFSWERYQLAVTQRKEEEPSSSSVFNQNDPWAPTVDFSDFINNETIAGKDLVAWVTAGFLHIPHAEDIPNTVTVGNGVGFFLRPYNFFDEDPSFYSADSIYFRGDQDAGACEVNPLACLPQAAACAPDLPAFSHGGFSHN
As to the kind of experiment: AOC3 biochemical assay (MAO-Glo), human enzyme. The text has this:
(§1) The MAO-Glo™ Assay (commercially available from PROMEGA, #V1402) provides a sensitive method for the measurement of monoamine oxidase (MAO) activity (Valley, M. P. et al., 2006, Anal. Biochem. 359: 238-246) from a variety of tissues, biofluids or recombinant expressed or purified enzymes. As substrate a derivate of the beetle luciferin ((4S)-4,5-dihydro-2-(6-hydroxybenzothiazolyl)-4-thiazole-carboxylic acid) is used, which is oxidized at a primary amine moiety. After a spontaneous elimination and a catalyzed esterase reaction, the turnover of luciferin by the luciferase is recorded as a signal of AOC3 activity.
An aliquot of 3 μL of the compound dilution is added to a 384 well plate (Optiplate, PS, flat bottom, white, PERKIN ELMER, #6007290) with a final DMSO concentration of 6.6%. Recombinant CHO cells, overexpressing the human (1500 cells/well), mouse (1000 cells/well) or rat (500 cells/well) AOC3 enzyme are diluted in reaction buffer and added in a volume of 15 μL to the wells. After incubation for 20 minutes at 37° C., 2 μL of MAO substrate (dissolved in DMSO at 16 mM, adjusted to assay concentration in reaction buffer to a final assay concentration of 20 μM) is added and further incubated for 60 minutes at 37° C. The turnover of the substrate is determined by the addition of 20 μL of the detection-mix which was generated by the addition of reconstitution buffer with esterase (PROMEGA, #V1402) to the luciferin detection reagent (PROMEGA, #V1402). After an incubation period of 20 minutes, the luminescent signal is measured with Envision 2104 Multilabel Reader (PERKIN ELMER).

The next assay concerns the target T2, MAO-A (Homo sapiens, UniProt P21397).
T2 construct: purchased Sigma-Aldrich M7316
T2 sequence (P21397 1-527): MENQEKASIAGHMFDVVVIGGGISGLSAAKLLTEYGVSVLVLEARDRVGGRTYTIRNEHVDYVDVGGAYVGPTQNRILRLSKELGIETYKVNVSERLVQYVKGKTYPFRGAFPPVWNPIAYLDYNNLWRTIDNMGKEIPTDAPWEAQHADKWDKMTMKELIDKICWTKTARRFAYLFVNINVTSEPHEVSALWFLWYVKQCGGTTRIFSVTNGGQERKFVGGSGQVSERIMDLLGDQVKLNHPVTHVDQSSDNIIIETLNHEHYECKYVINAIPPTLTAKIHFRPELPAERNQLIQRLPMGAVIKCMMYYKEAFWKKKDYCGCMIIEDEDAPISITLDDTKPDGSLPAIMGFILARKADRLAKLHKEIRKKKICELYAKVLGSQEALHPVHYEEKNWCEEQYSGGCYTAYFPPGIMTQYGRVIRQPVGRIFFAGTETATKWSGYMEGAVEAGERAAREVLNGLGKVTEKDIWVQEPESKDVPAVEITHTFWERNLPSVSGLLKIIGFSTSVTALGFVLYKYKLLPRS
As to the kind of experiment: MAO-A biochemical assay (MAO-Glo).
Text: as §1, with “MAO-A” for “AOC3”
An aliquot of 3 μL of the compound dilution is added to a 384 well plate (Optiplate, PS, flat bottom F, black, PERKIN ELMER, #6007270) in a DMSO concentration of 1.025%.
A MAO-A enzyme aliquot (M7316, Sigma-Aldrich) is thawed on ice, diluted in reaction buffer to 1.25 mU/μL and added in a volume of 5 μL to the wells. After incubation for 20 minutes at 37° C., 2 μL of MAO substrate (dissolved in DMSO at 16 mM, diluted to 20 μM in assay buffer to obtain a final assay concentration of 4 μM) is added, mixed, and the mixture further incubated for 60 minutes at 37° C.
The turnover of the substrate is determined by the addition of 10 μL of the Detection Reagent mix which was generated by the addition of reconstitution buffer with esterase (PROMEGA, #V1402) to the luciferin detection reagent (PROMEGA, #V1402). After an incubation period of 20 minutes at 37° C., the luminescent signal is measured with a […], e.g. Envision 2104 Multilabel Reader (PERKIN ELMER).

Regarding `NC/C(=C/F)COc1ccc(S(=O)(=O)N2CCC(CC(=O)O)CC2)cn1` [Example 44, trifluoroacetate], the IC50 in assay [1] (read-out: AOC3 IC50) was 110 nM; on MAO-A (IC50, read-out: MAO-A), over 50000 nM.

Consider `NC/C(=C/F)COc1ccc(S(=O)(=O)N2CCC[C@H]2C(N)=O)cn1` [Example 13], for which the IC50 in assay [1] (read-out: AOC3 IC50) was 43 nM; at MAO-A (IC50, read-out: MAO-A), over 50000 nM.

With `NC/C(=C/F)COc1ccc(S(=O)(=O)N2CCC(C(N)=O)CC2)cn1` [Example 7], the IC50 in assay [1] (read-out: AOC3 IC50) was 4 nM; at MAO-A (IC50, read-out: MAO-A), over 50000 nM.

On to `CNC(=O)C1CCN(S(=O)(=O)c2ccc(OC/C(=C\F)CN)nc2)CC1` [Example 37, trifluoroacetate], for which the IC50 is 10 nM in assay [1] (read-out: AOC3 IC50) and over 50000 nM on MAO-A (IC50, read-out: MAO-A).

With `CC1(O)CN(S(=O)(=O)c2ccc(OC/C(=C\F)CN)nc2)C1` [Example 16], the IC50 in assay [1] (read-out: AOC3 IC50) came to 9 nM; on MAO-A (IC50, read-out: MAO-A) it was 12800 nM.

`CC(=O)NC1CCN(S(=O)(=O)c2ccc(OC/C(=C\F)CN)nc2)C1` (stereo not drawn) [Example 12]: the IC50 is 15 nM in assay [1] (read-out: AOC3 IC50) and over 50000 nM at MAO-A (IC50, read-out: MAO-A).

On to `NC/C(=C/F)COc1ccc(S(=O)(=O)N2CC[C@@H](C(N)=O)C2)cn1` [Example 31], for which the IC50 in assay [1] (read-out: AOC3 IC50) is 4 nM; at MAO-A (IC50, read-out: MAO-A) it was over 50000 nM.

For `CC1(C(=O)NC2CCOCC2)CCN(S(=O)(=O)c2ccc(OC/C(=C\F)CN)nc2)CC1` [Example 48, 1-[6-((Z)-2-Aminomethyl-3-fluoro-allyloxy)-pyridine-3-sulfonyl]-4-methyl-piperidine-4-carboxylic acid (tetrahydropyran-4-yl)-amide trifluoroacetate], the IC50 is 33 nM in assay [1] (read-out: AOC3 IC50) and over 50000 nM at MAO-A (IC50, read-out: MAO-A).

Take `CN(C)S(=O)(=O)c1ccc(OC/C(=C\F)CN)cc1` [Compound 10 of WO 2013/163675, reference compound]: the IC50 came to 2 nM in assay [1] (comparison table, read-out: IC50 AOC3) and 7410 nM at MAO-A (read-out: IC50 MAO-A).

As to `NC/C(=C/F)COc1ccc(S(=O)(=O)N2CC[C@H](O)C2)cn1` [Example 43, (S)-1-[6-(Z)-2-Aminomethyl-3-fluoro-allyloxy]-pyridine-3-sulfonyl]-pyrrolidin-3-ol trifluoroacetate], the IC50 in assay [1] (read-out: AOC3 IC50) came to 10 nM; at MAO-A (IC50, read-out: MAO-A), 49100 nM; at MAO-A (comparison table, read-out: IC50 MAO-A) it was 49100 nM.
